According to US12053454B2, “Compositions for cryopreservation and methods of use thereof” (EVERGREEN BIOSCIENCES, priority 2017, dated 2024):

Assays:
[1] = system: primary mouse cortical neuron cells; assay: Viability after freeze/thaw in solutions comprising different necrostatins; format: cell-based; settings: necrostatin 20 nM with other components of the soln unchanged; vs vehicle cryopreserved with 10% DMSO
From the text: Several analogs of necrostatins were studied and found to work similarly in their cryoprotective effect after freeze/thaw.

[2] = system: stem cells (motor neuron precursors); assay: Motor neuron identity (CHAT1) after freezing of stem cells; format: cell-based; settings: frozen in solutions comprising 0.01 μM cyspA, or 20 nM Nec1, or 5 nM iMAC2; vs frozen in the absence of these compounds
From the text: Cellular freeze/thaw cycle causes stem cells to lose their identity, as measured by the level of CHAT1 in motor neurons. […] As shown here (FIG. 3), each of cyspA, Nec1, and IMAC2 provided cryoprotection to stem cells upon freezing, maintaining cellular characteristics. Cryoprotectants in solution used to freeze the cells, maintained motor neuron identity, as measure by the level of CHAT1.

Structure (SMILES) | percent viability [1] | CHAT1 levels [2]
COc1ccc2c(c1)C1=NN(C(C)=O)C(c3ccc(F)cc3)C1CC2 (centres unmarked) [Nec3] | significantly enhanced percent viability | 
Cl.Cl.OC(CN1CCNCC1)Cn1c2ccc(Br)cc2c2cc(Br)ccc21 (centres unmarked) [iMAC2, 3,6-Dibromo-a-(1-piperazinylmethyl)-9H-carbazole-9-ethanol dihydrochloride] |  | maintained CHAT1 levels
